In PMC4385514 (Chemical biology & drug design, 2014):
Counter-ions that a name gives are not always drawn.

Legend:
TbrPDEB1 = target: T1, TbrPDEB1 (Trypanosoma brucei, UniProt Q8WQX9); experiment: TbrPDEB1 biochemical assay; settings: for inhibition at 10 µM: read-out: TbrPDEB1 (% inh); for fold improvement of TbrPDEB1 activity over 3: relative to compound 3
T1 sequence (Q8WQX9 1-930): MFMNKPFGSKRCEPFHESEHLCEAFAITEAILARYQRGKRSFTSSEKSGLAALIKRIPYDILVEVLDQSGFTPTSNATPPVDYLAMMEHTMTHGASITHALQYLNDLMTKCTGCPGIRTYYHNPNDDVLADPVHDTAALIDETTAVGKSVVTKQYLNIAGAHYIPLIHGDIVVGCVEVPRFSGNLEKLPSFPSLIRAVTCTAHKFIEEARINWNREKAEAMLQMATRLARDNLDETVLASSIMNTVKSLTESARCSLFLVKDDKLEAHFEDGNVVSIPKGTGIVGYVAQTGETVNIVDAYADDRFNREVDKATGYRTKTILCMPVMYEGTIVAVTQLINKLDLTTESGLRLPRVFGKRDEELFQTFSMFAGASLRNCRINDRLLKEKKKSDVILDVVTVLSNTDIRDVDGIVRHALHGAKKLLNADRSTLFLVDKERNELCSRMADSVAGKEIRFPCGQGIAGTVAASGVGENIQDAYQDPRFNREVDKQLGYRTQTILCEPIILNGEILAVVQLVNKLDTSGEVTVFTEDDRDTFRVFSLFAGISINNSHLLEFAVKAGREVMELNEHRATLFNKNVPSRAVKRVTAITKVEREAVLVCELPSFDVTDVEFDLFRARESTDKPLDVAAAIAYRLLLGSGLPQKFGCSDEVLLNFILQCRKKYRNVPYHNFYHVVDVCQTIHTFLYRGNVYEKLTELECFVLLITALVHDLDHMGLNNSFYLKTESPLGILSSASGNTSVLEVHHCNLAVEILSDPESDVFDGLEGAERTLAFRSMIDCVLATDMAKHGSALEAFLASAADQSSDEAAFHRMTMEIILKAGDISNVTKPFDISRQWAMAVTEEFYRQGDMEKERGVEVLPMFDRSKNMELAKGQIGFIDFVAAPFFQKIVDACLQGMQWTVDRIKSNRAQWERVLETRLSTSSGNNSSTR

[1] = system: Bloodstream forms of Trypanosoma brucei brucei strain 427; experiment: Trypanosome cell culture assay; format: cell-based; settings: 48 h, read-out: T brucei cell (EC50, μM)

inhibition at 10 µM (TbrPDEB1) [%] | fold improvement of TbrPDEB1 activity over 3 (TbrPDEB1) | SMILES | EC50 [1] [µM]
10 ± 5.3 |  | COc1cccc(Nc2c(C(N)=O)cnc3c(C)cc(-c4cc(C(=O)O)cc(C(=O)O)c4)cc23)c1 [Compound 18a, 5-(3-carbamoyl-4-((3-methoxyphenyl)amino)-8-methylquinolin-6-yl)isophthalic acid] | 
34 ± 11 |  | CNC(=O)c1cnc2c(C)cc(-c3ccc4cnn(C)c4c3)cc2c1Nc1cccc(OC)c1 [Compound 27a, 4-((3-methoxyphenyl)amino)-N,8-dimethyl-6-(1-methyl-1H-indazol-6-yl)quinoline-3-carboxamide] | 
41 ± 5.8 |  | COC(=O)c1cccc(-c2cc(C)c3ncc(C(N)=O)c(-c4cccc(C(=O)OC)c4)c3c2)c1 [Compound 21a, dimethyl 3,3′-(3-carbamoyl-8-methylquinoline-4,6-diyl)dibenzoate] | 
31 ± 14 |  | COC(=O)c1cc(C(=O)O)cc(-c2cc(C)c3ncc(C(N)=O)c(Nc4cccc(OC)c4)c3c2)c1 [Compound 18b, 3-(3-carbamoyl-4-((3-methoxyphenyl)amino)-8-methylquinolin-6-yl)-5-(methoxycarbonyl)benzoic acid] | 
22 ± 3.8 |  | COc1cccc(Nc2c(C(=O)N(C)C)cnc3c(C)cc(-c4ccc5cnn(C)c5c4)cc23)c1 [Compound 27b, 4-((3-methoxyphenyl)amino)-N,N,8-trimethyl-6-(1-methyl-1H-indazol-6-yl)quinoline-3-carboxamide, formic acid salt] | 
0 |  | COC(=O)c1cccc(-c2cc(C)c3ncc(C(N)=O)cc3c2)c1 [Compound 21b, methyl 3-(3-carbamoyl-8-methylquinolin-6-yl)benzoate] | 

More lines, now with the values behind:

SMILES | inhibition at 10 µM (TbrPDEB1) [%] | fold improvement of TbrPDEB1 activity over 3 (TbrPDEB1) | EC50 [1] [µM]
COc1cccc(Nc2c(C(N)=O)cnc3c(C)cc(S(=O)(=O)c4cccc(C(=O)N(C)C)c4)cc23)c1 [Compound 3, GSK-256066, reference compound] | 51 ± 3.9 |  | 7.8 ± 2.5
COC(=O)c1cccc(Nc2cc(C)c3ncc(C(N)=O)c(Nc4cccc(OC)c4)c3c2)c1 [Compound 13, methyl 3-(3-carbamoyl-4-(3-methoxyphenylamino)-8-methylquinolin-6-ylamino)benzoate] | 84 ± 7.7 |  | 
COc1cccc(Nc2c(C(N)=O)cnc3c(C)cc(S(=O)(=O)c4cccc(C(N)=O)c4)cc23)c1 [Compound 12a, 6-(3-carbamoylphenylsulfonyl)-4-(3-methoxyphenylamino)-8-methylquinoline-3-carboxamide] | 64 ± 7 |  | 
COc1cccc(Nc2c(C(N)=O)cnc3c(C)cc(Sc4ccccc4)cc23)c1 [Compound 9b, 4-((3-methoxyphenyl)amino)-8-methyl-6-(phenylthio)quinoline-3-carboxamide] | 10 |  | 
COC(=O)c1cccc(Sc2cc(C)c3ncc(C(N)=O)c(Nc4cccc(OC)c4)c3c2)c1 [Compound 9a, methyl 3-(3-carbamoyl-4-(3-methoxyphenylamino)-8-methylquinolin-6-ylthio)benzoate] | 12 ± 6.1 |  | 
Cc1cc(-c2cccc(-c3ncco3)c2)cc2c(NC3CCCC3)c(C(N)=O)cnc12 [Compound 28, 4-(cyclopentylamino)-8-methyl-6-(3-(oxazol-2-yl)phenyl)quinoline-3-carboxamide] | 76 ± 2.2 |  | 
COc1cccc(Nc2c(C(N)=O)cnc3c(C)cc(S(=O)(=O)c4ccccc4)cc23)c1 [Compound 10b, 4-((3-methoxyphenyl)amino)-8-methyl-6-(phenylsulfonyl)quinoline-3-carboxamide] | 21 ± 16 |  | 
CNC(=O)c1cccc(S(=O)(=O)c2cc(C)c3ncc(C(N)=O)c(Nc4cccc(OC)c4)c3c2)c1 [Compound 12b, 4-(3-methoxyphenylamino)-8-methyl-6-(3-(methylcarbamoyl)phenylsulfonyl)quinoline-3-carboxamide] | 66 ± 6.1 |  | 
COc1cccc(Nc2c(C(N)=O)cnc3c(C)cc(S(=O)(=O)c4cccc(C(=O)O)c4)cc23)c1 [Compound 11, 3-(3-carbamoyl-4-(3-methoxyphenylamino)-8-methylquinolin-6-ylsulfonyl)benzoic acid] | 82 ± 10 | approximately 8 fold | 
COC(=O)c1cccc(S(=O)(=O)c2cc(C)c3ncc(C(N)=O)c(Nc4cccc(OC)c4)c3c2)c1 [Compound 10a, methyl 3-(3-carbamoyl-4-(3-methoxyphenylamino)-8-methylquinolin-6-ylsulfonyl)benzoate] | 70 ± 7.9 | approximately 8 fold | 7.3 ± 0.97
